Data reported in US11351209B2 (priority 2016, dated 2022).
“Also recorded” adds a separate entry of the source. Where two headings read alike, the source gives them in different places.

Tests used:
[1] = system: bone marrow derived macrophages; type: cell-based, BALB/c mice
[2] = system: CT26 flank tumours; assay: Efficacy study, oral IC87114 and intravenous VVL15, CT26 flank tumours; type: in vivo, BALB/c mice; settings: IC87114 50 mg kg^−1 oral gavage three hours before intravenous VVL15 (Group D), vs all other groups
[3] = system: CT26 flank tumours; type: in vivo, BALB/c mice; settings: 75 mg kg^−1 IC87114 three hours before intravenous 1×10^8 PFU VVL15, days 1, 3, 4 and 5, vs vehicle buffer
[4] = system: p110 delta protein; type: cell-based, BALB/c mice
[5] = system: orthotopic 4T1 tumours; assay: Efficacy study, oral IC87114 and intravenous VVL15, orthotopic 4T1 tumours; type: in vivo, BALB/c mice; settings: 4T1 orthotopic; IC87114 75 mg kg^−1 oral gavage three hours before intravenous VVL15 (Group D); vs all other groups
[6] = system: Vaccinia virus; settings: in vivo
[7] = system: splenocytes; assay: Ex vivo interferon gamma ELISA on splenocytes; type: in vivo, BALB/c mice; settings: CT26-bearing mice, IC87114 75 mg kg^−1 oral three hours before intravenous VVL15
Procedure: Interferon gamma assay on splenocytes derived from BALB/c mice bearing CT26 tumours. Fifteen mice were subcutaneously injected in their shaved right flank with 1×10^6 CT26 tumour cells. […] An interferon (IFN) gamma ELISA was performed. Anti-tumour immunity: splenocytes were stimulated with mitomycin treated CT26 cells, there was no statistically significant difference between any of the groups.
FIG. 2E illustrates an ex vivo interferon gamma assay performed on splenocytes derived from BALB/c mice bearing CT26 tumours. […] Thus pre-treatment with IC87114 appears to reduce in magnitude the subsequent development of an anti-viral response. This potentially could mean that aside from the effect IC87114 has on macrophages at an early time point it has a separate more lasting effect that leads to reduced anti-viral immunity and to the establishment of an effective infection of the tumours leading to the observed improvement in efficacy compared to virus alone.

[8] = type: in vivo; settings: Rats, oral administration
[9] = several trials; cited from earlier work

Structure (SMILES) | viral attachment to wild-type macrophages compared with p110 delta knock in macrophages ([1]; wild-type macrophages pretreated 2 hours with IC87114, vs untreated wild-type (P<0.05 or P<0.01)) | amount of VVL15 attached to macrophages (qPCR) ([1]; wildtype macrophages pretreated 2 hours with IC87114 vs untreated (P<0.001)) | Vaccinia virus detected on macrophages (confocal microscopy) ([1]; wildtype macrophages pretreated 2 hours with IC87114 vs vehicle buffer) | survival (Kaplan-Meier) [2] | tumour luminescence signal [3] | tumour luminescence signal ([3]; listed as IC87714) | p110 delta protein expression [4] | survival (Kaplan-Meier) [5] | localisation of Vaccinia virus to the spleen [6] | number of cells immunoreactive for Vaccinia coat protein per ×200 field in spleen [6] | anti-tumour immunity: IFN gamma from splenocytes stimulated with mitomycin treated CT26 cells [7] | anti-viral immunity: IFN gamma from splenocytes stimulated with B8R protein ([7]; vs virus alone) | time to maximum plasma concentration [8] | toxicities in trials [9]
Cc1ccccc1-n1c(Cn2cnc3c(N)ncnc32)nc2cccc(C)c2c1=O [IC87114, 2-[(6-amino-9H-purin-9-yl)methyl]-5-methyl-3-(2-methylphenyl)-4(3H)-quinazolinone] | statistically significant from untreated wild-type macrophages | statistically significantly different from untreated macrophages; also recorded: significantly reduces VVL15 attachment to macrophages; also recorded: reduction in viral attachment to macrophages | less Vaccinia virus detected | improves survival; also recorded: survived significantly longer than all the other groups; also recorded: survival advantage | significantly more signal | consistently higher tumour luminescence compared to control | does not appear to alter the amount of p110 delta protein detected | improves survival; also recorded: survived significantly longer than all other groups; also recorded: survival advantage | reduces the localisation of Vaccinia virus to the spleen | statistically significant difference between the groups | no effect on anti-tumour immunity | attenuates anti-viral immunity; also recorded: reduced levels of IFN gamma | 4 h | 
CC[C@H](Nc1ncnc2[nH]cnc12)c1nc2cccc(F)c2c(=O)n1-c1ccccc1 [Idelalisib, 5-Fluoro-3-phenyl-2-[(1S)-1-(7H-purin-6-ylamino)propyl]-4(3H)-quinazolinone] |  |  |  |  |  |  |  |  |  |  |  |  |  | minimal toxicities
